Results from PMC8752759, “GSNOR regulates ganoderic acid content in Ganoderma lucidum under heat stress through S-nitrosylation of catalase” (Communications Biology, 2022).

How the values were obtained:
Assay type in all cases: biochemical
CAT (catalase) [1] = biological target: T1, CAT (catalase) (Ganoderma lucidum, UniProt A0A223M0M1, C671S); assay: biotin-switch immunoblot; CAT activity by H2O2 decomposition at […] nm; settings: covalent; S-nitrosylation; room temperature, dark, 60 min
T1 construct: recombinant, pColdI vector, His-tagged, E. coli BL21(DE3), Ni-NTA purified; 6 cysteine residues
T1 sequence (A0A223M0M1 entry or part of it C671S): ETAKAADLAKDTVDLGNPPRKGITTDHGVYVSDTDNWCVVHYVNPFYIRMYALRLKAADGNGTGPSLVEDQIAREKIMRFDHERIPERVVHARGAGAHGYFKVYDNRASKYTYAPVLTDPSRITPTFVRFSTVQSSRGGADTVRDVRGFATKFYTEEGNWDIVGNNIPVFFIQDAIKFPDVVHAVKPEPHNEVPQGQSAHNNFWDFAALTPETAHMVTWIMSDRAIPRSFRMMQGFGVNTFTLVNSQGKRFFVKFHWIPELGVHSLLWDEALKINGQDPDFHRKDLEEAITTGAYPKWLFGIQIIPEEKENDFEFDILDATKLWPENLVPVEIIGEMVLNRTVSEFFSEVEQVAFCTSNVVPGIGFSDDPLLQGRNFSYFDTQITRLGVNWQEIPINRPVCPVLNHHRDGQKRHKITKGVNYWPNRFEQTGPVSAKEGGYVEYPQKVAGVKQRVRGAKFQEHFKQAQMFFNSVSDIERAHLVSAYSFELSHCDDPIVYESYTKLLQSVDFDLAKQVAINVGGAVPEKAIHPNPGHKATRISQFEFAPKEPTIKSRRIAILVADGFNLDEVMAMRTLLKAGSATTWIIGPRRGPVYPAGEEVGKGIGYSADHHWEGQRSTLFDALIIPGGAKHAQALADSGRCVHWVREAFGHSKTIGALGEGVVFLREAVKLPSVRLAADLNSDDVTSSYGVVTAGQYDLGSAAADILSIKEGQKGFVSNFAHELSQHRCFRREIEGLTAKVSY

CAT (catalase) [2] = biological target: T2, CAT (catalase) (Ganoderma lucidum, UniProt A0A223M0M1, C419S); assay: as above; settings: covalent; S-nitrosylation; room temperature, dark, 60 min
T2 construct: recombinant, pColdI vector, His-tagged, E. coli BL21(DE3), Ni-NTA purified; 6 cysteine residues
T2 sequence (A0A223M0M1 entry or part of it C419S): as the sequence (A0A223M0M1 entry or part of it C671S) above, with C401S, S653C counted along it

CAT (catalase) [3] = biological target: T3, CAT (catalase) (Ganoderma lucidum, UniProt A0A223M0M1, C660S); assay: as above; settings: covalent; S-nitrosylation; room temperature, dark, 60 min
T3 construct: recombinant, pColdI vector, His-tagged, E. coli BL21(DE3), Ni-NTA purified; 6 cysteine residues
T3 sequence (A0A223M0M1 entry or part of it C660S): as the sequence (A0A223M0M1 entry or part of it C671S) above, with C642S, S653C counted along it

CAT (catalase) [4] = biological target: T4, CAT (catalase) (Ganoderma lucidum, UniProt A0A223M0M1); assay: biotin-switch immunoblot, LC-MS/MS of sites; CAT activity by H2O2 decomposition at […] nm; settings: covalent; S-nitrosylation at Cys401, Cys642, Cys653; room temperature, dark, 60 min; activating
T4 construct: recombinant, pColdI vector, His-tagged, E. coli BL21(DE3), Ni-NTA purified; 6 cysteine residues
T4 sequence (A0A223M0M1 entry or part of it): as the sequence (A0A223M0M1 entry or part of it C671S) above, with S653C counted along it

N[C@@H](CCC(=O)N[C@@H](CSN=O)C(=O)NCC(=O)O)C(=O)O [GSNO, S-nitrosoglutathione]
biotin-switch immunoblot; CAT activity by H2O2 decomposition at 240 nm (CAT (catalase) [1]): The C401S, C642S, and C653S single mutants | biotin-switch immunoblot; CAT activity by H2O2 decomposition at 240 nm (CAT (catalase) [2]): The C401S, C642S, and C653S single mutants | biotin-switch immunoblot; CAT activity by H2O2 decomposition at 240 nm (CAT (catalase) [3]): The C401S, C642S, and C653S single mutants | biotin-switch immunoblot, LC-MS/MS of sites; CAT activity by H2O2 decomposition (CAT (catalase) [4]): CAT was S-nitrosylated, which was induced by GSNO
